Laboratory results published in patent publication US11345761B2, “Esterified selenium polysaccharide and preparation method and use therefor” (AI-MAY ZHONG KE SELENIUM TECHNOLOGY (TIANJIN) CO., LTD, priority 2018, dated 2022).

Columns and labels:
IL-4 = IL-4 expression in B-6 splenocytes, flow cytometry; type: cell-based; settings: 2 to 5 micrograms selenium/mL, 48 hours, compared with 1,3-glucose hexasaccharide
Procedure: (§1) B-6 splenocytes were used as the experimental model. Carrageenan, chitohexaose, 1,3-glucose hexasaccharide, PMA+innomycin were used as controls and incubated in the culture medium containing the esterified selenium polysaccharide of the present invention (2 to 5 micrograms selenium/mL) for 48 hours to detect the expression of IL-4 and IFN-γ thereof.
(§2) In the Example, the culture medium for culturing B-6 spleen cells is the culture medium for culturing B-6 spleen cells conventionally in the art, and contains essential and non-essential amino acids, vitamins, glucose, hormones, growth factors, trace minerals and low-concentration fetal bovine serum (2%) and 5 mi penicillin/streptomycin solution. The buffer system of the medium is phosphate buffered saline solution PBS, and the pH value is 7.4 after equilibrating in a cell incubator containing 5% CO2.
(§3) After the cells were harvested, they were stained with BD Bioscience's Cytofix/Cytoperm kit and detected by flow cytometry.

IFN-γ = IFN-γ expression in B-6 splenocytes, flow cytometry; type: cell-based; settings: 2 to 5 micrograms selenium/mL, 48 hours, compared with 1,3-glucose hexasaccharide
Procedure: as §1, §2, §3

[1] = Blood detection after feeding mice; type: in vivo; parameters: red blood cell: unit not given here
Excerpt: Mice, which were used as a model, were fed with the esterified selenium polysaccharide prepared by the present invention continuously at a selenium dose of 2 to 5 micrograms of selenium/day for 2 weeks. A polysaccharide without the esterified selenium was used as a control. […] The above-mentioned detection data became stable starting from week 5.

[2] = tested on: glutathione peroxidase (GSH-Px); experiment: Serum GSH-Px activity after feeding chicks; type: in vivo; settings: 5 micrograms of selenium/day
Procedure: (§4) Chicks, which were used as a model, were fed with the esterified selenium polysaccharide of the present invention continuously at a dose of 5 micrograms of selenium/day after birth. A polysaccharide without the esterified selenium was used as a control. On days 7, 14, 21, and 28 after feeding, the assay of the activity of glutathione peroxidase (GSH-Px) and superoxide dismutase (SOD) was performed (using commercially available kits EnzyChrom™ Glutahione Peroxidase Assay Kit and MIBio Mouse superoxide dismutase (SOD) kit for completion of the assay).

[3] = tested on: superoxide dismutase (SOD); experiment: Serum SOD activity after feeding chicks; type: in vivo; settings: 5 micrograms of selenium/day
Procedure: as §4

[4] = fed 2 to 5 micrograms of selenium/day, week 3 to week 6

esterified selenium polysaccharide
increase of maximum expression of IL-4 (IL-4): 60% | increase of maximum expression of IFN-γ (IFN-γ): 36% | Selenium content in serum ([1]; Week 1, 2 μg/day selenium): 0.4 µg/L | red blood cell ([1]; Week 1, 2 μg/day selenium): 9.58 ×10^6 | white blood cell ([1]; Week 1, 2 μg/day selenium): 7260 mL⁻¹ | Selenium content in serum ([1]; Week 1, 5 μg/day selenium): 0.7 µg/L | red blood cell ([1]; Week 1, 5 μg/day selenium): 9.66 ×10^6 | white blood cell ([1]; Week 1, 5 μg/day selenium): 7290 mL⁻¹ | Selenium content in serum ([1]; Week 3, 2 μg/day selenium): 2.9 µg/L | red blood cell ([1]; Week 3, 2 μg/day selenium): 9.75 ×10^6 | white blood cell ([1]; Week 3, 2 μg/day selenium): 7360 mL⁻¹ | Selenium content in serum ([1]; Week 3, 5 μg/day selenium): 4.5 µg/L | red blood cell ([1]; Week 3, 5 μg/day selenium): 9.97 ×10^6 | white blood cell ([1]; Week 3, 5 μg/day selenium): 7570 mL⁻¹ | Selenium content in serum ([1]; Week 4, 2 μg/day selenium): 6.1 µg/L | red blood cell ([1]; Week 4, 2 μg/day selenium): 10.5 ×10^6 | white blood cell ([1]; Week 4, 2 μg/day selenium): 7590 mL⁻¹ | Selenium content in serum ([1]; Week 4, 5 μg/day selenium): 6.8 µg/L | red blood cell ([1]; Week 4, 5 μg/day selenium): 10.5 ×10^6 | white blood cell ([1]; Week 4, 5 μg/day selenium): 7910 mL⁻¹ | Selenium content in serum ([1]; Week 5, 2 μg/day selenium): 6.9 µg/L | red blood cell ([1]; Week 5, 2 μg/day selenium): 11.1 ×10^6 | white blood cell ([1]; Week 5, 2 μg/day selenium): 7960 mL⁻¹ | Selenium content in serum ([1]; Week 5, 5 μg/day selenium): 7.3 µg/L | red blood cell ([1]; Week 5, 5 μg/day selenium): 11.4 ×10^6 | white blood cell ([1]; Week 5, 5 μg/day selenium): 7990 mL⁻¹ | Selenium content in serum ([1]; Week 6, 2 μg/day selenium): 7.0 µg/L | red blood cell ([1]; Week 6, 2 μg/day selenium): 11.2 ×10^6 | white blood cell ([1]; Week 6, 2 μg/day selenium): 7960 mL⁻¹ | Selenium content in serum ([1]; Week 6, 5 μg/day selenium): 7.3 µg/L | red blood cell ([1]; Week 6, 5 μg/day selenium): 11.5 ×10^6 | white blood cell ([1]; Week 6, 5 μg/day selenium): 7990 mL⁻¹ | increase of red blood cells [1, 4]: 20% | increase of selenium content in serum [1, 4]: more than 30% | increase of white blood cells [1, 4]: 10% | Serum GSH-Px ([2]; Day 1): 1869 U/mg | Serum GSH-Px ([2]; Day 7): 1879 U/mg | Serum GSH-Px ([2]; Day 14): 1975 U/mg | Serum GSH-Px ([2]; Day 21): 2150 U/mg | Serum GSH-Px ([2]; Day 28): 2090 U/mg | increase of chick GHS-Px activity at maximum ([2]; maximum on days 14-21): 15% | Serum SOD ([3]; Day 1): 180 U/mg | Serum SOD ([3]; Day 7): 191 U/mg | Serum SOD ([3]; Day 14): 195 U/mg | Serum SOD ([3]; Day 21): 190 U/mg | Serum SOD ([3]; Day 28): 187 U/mg | increase of SOD at maximum ([3]; maximum on days 7-14): 12%
